What was measured:
[1] = target: Estrogen receptor beta (Homo sapiens) (UniProt Q92731); test: Relative binding affinity for human Estrogen receptor beta compared to estradiol (E2)
[2] = target: Estrogen receptor beta (Homo sapiens) (UniProt Q92731); test: Antagonistic effect on 1 nM estradiol induced transcriptional activation in HEC-1 cells expressing estrogen receptor beta at 10e-8 M; assay type: functional, cell-based
[3] = target: Estrogen receptor beta (Homo sapiens) (UniProt Q92731); test: Transcriptional activation in human endometrial carcinoma (HEC-1) cells expressing estrogen receptor beta at 10e-6 M; assay type: functional
[4] = target: Estrogen receptor beta (Homo sapiens) (UniProt Q92731); test: Transcriptional activation in human endometrial carcinoma (HEC-1) cells expressing estrogen receptor beta at 10e-9 M; assay type: functional
[5] = target: Estrogen receptor beta (Homo sapiens) (UniProt Q92731); test: Antagonistic effect on 1 nM estradiol induced transcriptional activation in HEC-1 cells expressing estrogen receptor beta at 10e-7 M; assay type: functional, cell-based
[6] = target: T1, Estrogen receptor (Homo sapiens) (UniProt P03372); test: Antagonistic effect on 1 nM estradiol induced transcriptional activation in HEC-1 cells expressing estrogen receptor alpha at 10e-7 M; assay type: functional, cell-based
T1 sequence (whole entry): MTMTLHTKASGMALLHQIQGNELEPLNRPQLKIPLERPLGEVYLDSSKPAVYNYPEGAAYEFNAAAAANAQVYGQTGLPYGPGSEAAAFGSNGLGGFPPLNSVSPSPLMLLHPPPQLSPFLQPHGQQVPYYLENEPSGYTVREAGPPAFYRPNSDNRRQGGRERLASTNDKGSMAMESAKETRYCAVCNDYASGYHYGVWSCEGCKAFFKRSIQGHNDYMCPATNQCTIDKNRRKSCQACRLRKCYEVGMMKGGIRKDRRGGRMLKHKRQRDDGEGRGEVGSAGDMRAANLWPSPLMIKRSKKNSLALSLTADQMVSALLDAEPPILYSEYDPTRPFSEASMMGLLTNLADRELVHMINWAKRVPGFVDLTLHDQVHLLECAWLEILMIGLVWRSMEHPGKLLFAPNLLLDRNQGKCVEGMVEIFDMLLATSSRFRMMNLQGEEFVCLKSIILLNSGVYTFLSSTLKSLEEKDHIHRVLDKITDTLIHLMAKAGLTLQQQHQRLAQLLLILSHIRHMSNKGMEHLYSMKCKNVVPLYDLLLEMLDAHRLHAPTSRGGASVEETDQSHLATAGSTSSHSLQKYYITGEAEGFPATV

[7] = target: Estrogen receptor beta (Homo sapiens) (UniProt Q92731); test: Antagonistic effect on 1 nM estradiol induced transcriptional activation in HEC-1 cells expressing estrogen receptor beta at 10e-6 M; assay type: functional, cell-based
[8] = target: Estrogen receptor beta (Homo sapiens) (UniProt Q92731); test: Antagonistic effect on 1 nM estradiol induced transcriptional activation in HEC-1 cells expressing estrogen receptor beta at 10e-9 M; assay type: functional, cell-based
[9] = target: T1, Estrogen receptor (Homo sapiens); test: Antagonistic effect on 1 nM estradiol induced transcriptional activation in HEC-1 cells expressing estrogen receptor alpha at 10e-6 M; assay type: functional, cell-based

Estrogen receptor beta (Homo sapiens), sequence (Q92731 whole entry): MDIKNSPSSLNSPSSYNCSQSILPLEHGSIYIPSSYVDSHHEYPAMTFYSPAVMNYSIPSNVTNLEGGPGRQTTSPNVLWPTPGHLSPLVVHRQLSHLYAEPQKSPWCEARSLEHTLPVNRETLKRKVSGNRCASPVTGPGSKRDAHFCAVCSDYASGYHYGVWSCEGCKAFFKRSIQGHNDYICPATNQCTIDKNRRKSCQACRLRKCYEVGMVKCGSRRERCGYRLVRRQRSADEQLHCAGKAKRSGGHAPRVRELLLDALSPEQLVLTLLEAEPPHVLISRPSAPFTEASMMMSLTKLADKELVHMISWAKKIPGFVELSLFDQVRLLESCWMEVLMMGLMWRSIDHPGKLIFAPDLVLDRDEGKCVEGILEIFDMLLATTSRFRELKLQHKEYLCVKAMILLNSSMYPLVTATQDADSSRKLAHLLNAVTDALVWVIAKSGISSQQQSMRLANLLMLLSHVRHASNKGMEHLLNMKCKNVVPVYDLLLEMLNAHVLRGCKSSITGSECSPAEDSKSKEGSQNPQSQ

Row | Structure (SMILES) | RBA [1] | further results
1 | CC[C@@H]1Cc2cc(O)ccc2C2=C1c1ccc(O)cc1C[C@H]2CC | 144% | 
2 | O=C1c2cc(O)ccc2[C@H]2CCc3cc(O)ccc3[C@@H]12 | 2% | 
3 | Oc1ccc2c(c1)CC[C@@H]1c3ccc(O)cc3[C@H](c3ccc(OCCN4CCCCC4)cc3)[C@H]21 | 10% | Response [2]: 30%; Response [3]: 5%; Response [4]: 70%; Response [5]: 15%; Response [6]: 10%; Response [7]: 5%
4 | Oc1ccc2c(c1)CC[C@@H]1c3ccc(O)cc3C[C@H](c3ccc(OCCN4CCCCC4)cc3)[C@H]21 | 0.06% | Response [8]: 5%; Response [2]: 105%; Response [9]: 25%; Response [5]: 104%
5 | CCC1Cc2cc(O)ccc2C2C(CC)Cc3cc(O)ccc3C12 (stereo unspecified) | 16% | 
6 | Oc1ccc2c(c1)CCC1=C2CCc2cc(O)ccc21 | 6.5% | 

More lines, main results first:

Row | RBA [1] | Structure (SMILES) | further results
7 | 130% | Oc1ccc2c(c1)CC[C@H]1c3ccc(O)cc3CC[C@@H]21 | 
8 | 71% | Oc1ccc2c(c1)CC[C@@H]1c3ccc(O)cc3CC[C@H]21 | 
9 | 300% | CCC1c2cc(O)ccc2[C@H]2CCc3cc(O)ccc3[C@@H]12 (stereo in doubt; 17a) | 
10 | 280% | CCC1c2cc(O)ccc2[C@H]2CCc3cc(O)ccc3[C@@H]12 (stereo in doubt; 17b) | 
11 | 63% | Oc1ccc2c(c1)C[C@@H]1c3ccc(O)cc3CC[C@H]21 | 

From ChEMBL document CHEMBL1134060, “Synthesis and evaluation of hexahydrochrysene and tetrahydrobenzofluorene ligands for the estrogen receptor” (Bioorg Med Chem Lett, 2001)
